Laboratory results reported in US20060251751A1, “Sophoridine and its use as an analgesic” (SHANGHAI FANGDA PHARMACEUTICALS, LTD., priority 2001, published 2006).
Marks after values point to notes of the source that are not given here.

Tests used:
[1] = system: acetylcholine level in central nervous system; experiment: Preliminary study on mechanism of analgesic effect (acetylcholine level in CNS)
Source text: Therefore, sophoridine and derivatives thereof are also useful for treating patients suffering from neurodegenerative diseases, senile dementia of the Alzheimer's type (SDAT) and Pakinson's disease (PD).

[2] = system: Kunming mice; experiment: Analgesic effect of sophoridine on mice models (acetic acid induced writhing method); format: in vivo; conditions: for Number of writhe (X ± SD): 0.6% acetic acid i.p.
Description: The analgesic activity of sophoridine was also tested in vivo in mice experimental models, using acetic acid induced writhing Method which are known to evaluate the pain in animals. Writhing test is a standard procedure for detecting and comparing analgesic activity in laboratory animals, and generally correlates well with human efficacy.
30 Male and 30 female Kunming mice weighing 18-22 g were used as experimental models. […] Then, the animals randomly divided into six groups, each group includes 10 animals. Five experimental groups intravenously received 25, 20, 15, 10 and 5 mg/Kg of the sophoridine suspended in a normal saline solution via the tail vein, respectively.
The frequency of writhing syndrome was counted for 5 minutes from 15 minutes after the injection of spophoridine or placebo. The control group received treatment only with the solvent (normal saline).

[3] = system: Male Kunming mice; experiment: Analgesic effect of sophoridine on mice model (hot plate method); format: in vivo; conditions: for Pain thresholds (seconds) After administration: 10 minutes after administration; for Pain thresholds (seconds) Before administration: before administration (baseline)
Description: The analgesic activity of sophoridine was tested in vivo in mice experimental models, using Hot Plate Method, which are known to evaluate the pain in animals.
The method that was used is described by Eddy N. B. and Leimbach D. (J. Pharm. Exp. Ther. 107: 385-393, 1953) and somewhat modification is made in the present invention.
Male Kunming mice weighing 18-22 g were used as experimental model. The analgesic effect of the sophoridine was evaluated by analysing the behavioral response of the animals on a hot surface at 55° C.±0.5° C. The alkaloid compounds being tested were administered intravenously through the tail vein 10 minutes before starting the test.
Briefly, the process consisted of placing the animals on the plate and keeping them in a plastic cylinder 22 cm diameter and 11 cm high. The time the animals took to lick a paw or jump off the hot surface was determined. The animals were selected before starting the test that those with response latency (the pain threshold values before administrations) longer than 30 seconds were excluded from the experiment. The certificated animals divided into six groups (10 animals/group). Five experimental groups received 25, 20, 15, 10 and 5 mg/kg of the sophoridine suspended in a normal saline solution, respectively. The control group received treatment only with the solvent (normal saline).
10 minutes after administering the alkaloids being tested, the test was repeated and the maximum response latency time (seconds) took the animals to lick the hindlimb or jump off and run away was again recorded.

[4] = system: mice; experiment: Effect of the opioid receptor antagonist naloxone on morphine- and sophoridine-induced analgesia; format: in vivo
Description: Following procedures of the previous Examples, screening and grouping of experimental animals was carried out. […] The animals of negative control were injected with normal saline. The pain thresholds (response latency time, seconds, of each animal was recorded at 15, 30, 60, and 90 minutes after administrations, respectively. The results are summarized in Table 4 below.

[5] = system: mice; experiment: Comparison of analgesic effects and synergistic activity between sophoridine and morphine (hot plate method); format: in vivo; conditions: for Pain thresholds before admin.: before admin. (baseline)
Description: In five experimental groups, animals of each group received 25, 20, 15, 10 and 5 mg/kg of the sophoridine suspended in a normal saline solution, respectively.

[6] = system: patients suffering from advanced cancers; experiment: Clinical trials in more than 200 patients with advanced cancers; format: in vivo, human
[7] = system: tumor cells; conditions: cited from earlier work
[8] = sophoridine 25 mg/kg i.v., hot plate 55°C

O=C1CCC[C@@H]2[C@H]3CCCN4CCC[C@H](CN12)[C@@H]34 [Sophoridine]
acetylcholine level in central nervous system (in words) [1]: significant increasing acetylcholine level
Number of writhe (X ± SD) ([2]; sophoridine 5 mg/kg i.v.): 23.2 ± 6.43
Number of writhe (X ± SD) ([2]; sophoridine 10 mg/kg i.v.): 14.1 ± 9.64
Number of writhe (X ± SD) ([2]; sophoridine 15 mg/kg i.v.): 9.9 ± 6.3
Number of writhe (X ± SD) ([2]; sophoridine 20 mg/kg i.v.): 1.5 ± 1.35
Number of writhe (X ± SD) ([2]; sophoridine 25 mg/kg i.v., counted for 5 minutes from 15 minutes after injection): 0***
analgesic activity in mice models (in words) ([2]; writhing method, 5-25 mg/kg i.v.): good analgesic activity
analgesic activity in mice models (in words) ([3]; hot plate method, 5-25 mg/kg i.v.): good analgesic activity
Pain thresholds (seconds) After administration ([3]; sophoridine 5 mg/kg i.v.): 25.8 ± 20.74 s
Pain thresholds (seconds) Before administration ([3]; sophoridine 5 mg/kg i.v.): 16.3 ± 6.02 s
Pain thresholds (seconds) After administration ([3]; sophoridine 10 mg/kg i.v.): 24.8 ± 15.99 s
Pain thresholds (seconds) Before administration ([3]; sophoridine 10 mg/kg i.v.): 11.7 ± 4.59 s
Pain thresholds (seconds) After administration ([3]; sophoridine 15 mg/kg i.v.): 38.5 ± 17.19 s
Pain thresholds (seconds) Before administration ([3]; sophoridine 15 mg/kg i.v.): 14.7 ± 4.62 s
Pain thresholds (seconds) After administration ([3]; sophoridine 20 mg/kg i.v.): 57.1 ± 6.10 s
Pain thresholds (seconds) Before administration ([3]; sophoridine 20 mg/kg i.v.): 12.4 ± 4.25 s
Pain thresholds (seconds) After administration [3, 8]: 48.6 ± 19.14 s
Pain thresholds (seconds) Before administration [3, 8]: 16.4 ± 6.48 s
naloxone counteracting the analgesic effect (in words) ([4]; naloxone 2.0 mg/kg, morphine 10 mg/kg or sophoridine 20 mg/kg): ineffective in counteracting the effect
Pain thresholds after admin. (seconds) 15 min. ([4]; sophoridine alone 20 mg/kg i.v., 15 min.): 34.5 ± 16.2 s
Pain thresholds after admin. (seconds) 30 min. ([4]; sophoridine alone 20 mg/kg i.v., 30 min.): 23.8 ± 7.0 s
Pain thresholds after admin. (seconds) 60 min. ([4]; sophoridine alone 20 mg/kg i.v., 60 min.): 21.8 ± 8.9 s
Pain thresholds after admin. (seconds) 90 min. ([4]; sophoridine alone 20 mg/kg i.v., 90 min.): 18.3 ± 6.6 s
Pain thresholds before admin. ([4]; sophoridine alone 20 mg/kg i.v., before admin. (baseline)): 17.9 ± 2.6 s
Pain thresholds after admin. (seconds) 15 min. ([5]; sophoridine 5 mg/kg): 17.5 ± 3.3 s
Pain thresholds after admin. (seconds) 30 min. ([5]; sophoridine 5 mg/kg): 16.6 ± 6.5 s
Pain thresholds after admin. (seconds) 60 min. ([5]; sophoridine 5 mg/kg): 16.0 ± 4.5 s
Pain thresholds after admin. (seconds) 90 min. ([5]; sophoridine 5 mg/kg): 19.3 ± 5.4 s
Pain thresholds before admin. ([5]; sophoridine 5 mg/kg): 17.45 ± 2.6 s
Pain thresholds after admin. (seconds) 15 min. ([5]; sophoridine 10 mg/kg): 20.2 ± 7.2 s
Pain thresholds after admin. (seconds) 30 min. ([5]; sophoridine 10 mg/kg): 28.0 ± 18.3 s
Pain thresholds after admin. (seconds) 60 min. ([5]; sophoridine 10 mg/kg): 12.6 ± 5.9 s
Pain thresholds after admin. (seconds) 90 min. ([5]; sophoridine 10 mg/kg): 20.5 ± 15.0 s
Pain thresholds before admin. ([5]; sophoridine 10 mg/kg): 18.6 ± 4.9 s
Pain thresholds after admin. (seconds) 15 min. ([5]; sophoridine 15 mg/kg): 32.9 ± 19.2 s
Pain thresholds after admin. (seconds) 30 min. ([5]; sophoridine 15 mg/kg): 31.3 ± 17.5 s
Pain thresholds after admin. (seconds) 60 min. ([5]; sophoridine 15 mg/kg): 15.2 ± 10.2 s
Pain thresholds after admin. (seconds) 90 min. ([5]; sophoridine 15 mg/kg): 15.8 ± 5.7 s
Pain thresholds before admin. ([5]; sophoridine 15 mg/kg): 16.45 ± 3.9 s
Pain thresholds after admin. (seconds) 15 min. ([5]; sophoridine 20 mg/kg): 36.8 ± 18.2 s
Pain thresholds after admin. (seconds) 30 min. ([5]; sophoridine 20 mg/kg): 24.6 ± 7.7 s
Pain thresholds after admin. (seconds) 60 min. ([5]; sophoridine 20 mg/kg): 23.0 ± 9.9 s
Pain thresholds after admin. (seconds) 90 min. ([5]; sophoridine 20 mg/kg): 19.3 ± 6.6 s
Pain thresholds before admin. ([5]; sophoridine 20 mg/kg): 16.9 ± 2.5 s
Pain thresholds after admin. (seconds) 15 min. ([5]; sophoridine 25 mg/kg): 44.3 ± 14.9 s
Pain thresholds after admin. (seconds) 30 min. ([5]; sophoridine 25 mg/kg): 28.3 ± 11.4 s
Pain thresholds after admin. (seconds) 60 min. ([5]; sophoridine 25 mg/kg): 20.3 ± 4.9 s
Pain thresholds after admin. (seconds) 90 min. ([5]; sophoridine 25 mg/kg): 18.8 ± 6.3 s
Pain thresholds before admin. ([5]; sophoridine 25 mg/kg): 15.4 ± 4.0 s
analgesic activity compared to morphine hydrochloride (in words) ([5]; sophoridine in higher doses, hot plate): comparable or better analgesic activity
effect on pain caused by malignant growth of cancer tissues (in words) [6]: significantly inhibit or alleviate mild to severe pain
effect on proliferation of tumor cells (in words) [6]: inhibit proliferation of tumor cells
side effects of tolerance and addiction (in words) ([6]; higher doses for a long term): did not develop any side effects of tolerance and addiction
anti-tumor activities (in words) ([7]; Xuemei Li et al. 1987): tumor cell-killing and tumor cell growth-inhibiting activities
effect on functions of hematopoietic and immunological systems (in words) ([7]; Xuemei Li et al.): does not inhibit the functions of hematopoietic and immunological systems

O=C1C=CC[C@@H]2[C@H]3CCCN4CCC[C@@H](CN12)[C@@H]34 [sophocarpine]
effect on pain caused by malignant growth of cancer tissues (in words) [6]: significantly inhibit or alleviate mild to severe pain
effect on proliferation of tumor cells (in words) [6]: inhibit proliferation of tumor cells
